Assay results: PubChem BioAssay AID2743 (NMMLSC, 2010)
Values joined by “and” are separate entries in the source; they are usually repeats but may differ in a detail not shown here. Equal entries are not always repeated. Active and inactive are the calls of the source.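 The calls were made as follows: active = fitted half-maximal concentration for change in GFP expression of 33 µM or less; inactive = the rest.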

Test: concentration-dependent AGP1-GFP change, TOR pathway – cell-based, flow cytometry, S. cerevisiae, MLPCN hits, dose response (AID 2743)
Settings: S. cerevisiae AGP1-GFP strain, flow cytometry GFP, 3 h; at 33 µM (top of the series)

SMILES | GFP fluorescence (kMESF)
C=C1C(O)[C@@H]2O[C@]3(CC[C@H](/C=C/C(C)[C@@H]4CC(C)=CC5(O[C@H](C[C@@](C)(O)C(=O)O)CCC5O)O4)O3)CC[C@H]2O[C@@H]1C(O)CC(C)[C@H]1OC2(CCCCO2)CCC1C (stereo partly drawn) | 35.8 kMESF (inactive)
COc1ccccc1N=Cc1nc(-c2ccccc2)oc1OC(C)=O | 35.1 kMESF (inactive)
C[C@@H]1C[C@@H]([C@H](O)CC2CC(=O)NC(=O)C2)C(=O)[C@@H](C)C1 | 26.8 kMESF (inactive)
C=CCOc1ccccc1C(=O)/C=C1/C(=O)Nc2ccccc21 | 43.2 kMESF (inactive)
On1ccccc1=S | 35.2 kMESF (inactive)
COc1cccc(C(=O)Nc2nnc(-c3ccc(Cl)cc3)o2)c1 | 34.6 kMESF (inactive)
O=C(Nc1ccc(NC(=O)c2cc3ccccc3o2)cc1)c1ccc2c(c1)OCCO2 | 42.8 kMESF (inactive)
CC(C)Oc1ccc(C(=O)/C=C2/C(=O)Nc3ccccc32)cc1 | 46.3 kMESF (inactive)
COc1ccc([N+](=O)[O-])c(S(=O)(=O)c2ccc(Cl)cc2)n1 | 37.1 kMESF (inactive)
O=C(Nc1ccc(N2CCOCC2)cc1)C1CCN(S(=O)(=O)c2ccc3c(c2)OCCO3)CC1 | 34 kMESF (inactive)
O=c1[nH]c(-c2ccccn2)nc(C(F)(F)F)c1Br | 36.9 kMESF (inactive)
Cc1ccc(C(=O)Oc2oc(-c3ccco3)nc2C=Nc2ccc(Cl)cc2)cc1 | 35 kMESF (inactive)
COc1ccc(C(c2c(C)[nH]n(C(N)=S)c2=O)C(C#N)C#N)cc1 (stereo not drawn) | 44.2 kMESF (inactive)
Cc1ccc(N2C(=O)CC(Sc3ncn[nH]3)C2=O)cc1C (stereo not drawn) | 49.6 kMESF (inactive)
Cc1ccc(C(=O)Sc2cccccc2=O)cc1 | 33 kMESF (inactive)
O=C1C=CC(=O)N1c1ccc(OC(F)F)cc1 | 27.8 kMESF (inactive)
O=[N+]([O-])c1ccc(O)c2ncccc12 | 39.4 kMESF (inactive) and 32.2 kMESF (inactive)
O=C1NC(=O)N(c2ccccc2)C(=O)/C1=C/c1ccc(Sc2ccccc2)o1 | 35.9 kMESF (inactive)
O=C(O)c1cc[c]([Hg][Cl])cc1 | 32.1 kMESF (inactive)
O=c1cc(-c2ccccc2)cc(-c2ccccc2)n1O | 22.5 kMESF (inactive)
O=[N+]([O-])c1cc(CN2CCN(c3cccc(C(F)(F)F)c3)CC2)c2cccnc2c1O | 32.2 kMESF (inactive)
O=C(Cc1ccc(Cl)cc1)NNC(=S)NC(=O)c1cccs1 | 36.9 kMESF (inactive)

SMILES | GFP fluorescence (kMESF)
Oc1ccc(COCc2ccccc2)c2cccnc12 | 36.3 kMESF (inactive)
CC1=C(C)/C(=N\OS(=O)(=O)c2ccc(C)cc2)C=CC1=O | 31.9 kMESF (inactive)
C#CCOCCOCCOCCNc1nc(N2CCN(C(=O)CCCCCCCCCCNC(=O)[C@@H](CCC(=O)O)n3cc(CCCCCN)nn3)CC2)nc(N2CCN(C(=O)CCCCCCCCCCNC(=O)[C@H](CCCCN)n3cc(C[C@@H](C)CC)nn3)CC2)n1 | 51.4 kMESF (inactive)
COc1ccc(CCNC2=C(Cl)C(=O)N(CCc3ccccc3)C2=O)cc1OC | 42 kMESF (inactive)
COc1cc(/C=C2\C(=O)ON=C2c2ccc(Cl)cc2)ccc1O | 33 kMESF (inactive)
O=C1c2cccc3c([N+](=O)[O-])ccc(c23)C(=O)N1O | 40.9 kMESF (inactive)
CC(Oc1ccc(Cl)cc1)C(=O)NNC(=S)NC(=O)c1ccco1 (stereo not drawn) | 34.2 kMESF (inactive)
O=C(NOC(=O)c1ccccc1)c1ccccc1 | 25.9 kMESF (inactive)
CC1(c2ccccc2)ON(c2ccccc2C(F)(F)F)C1=O (stereo not drawn) | 29.4 kMESF (inactive)
Cc1cccc(N2C(=O)C(Cl)=C(Nc3c(C)n(C)n(-c4ccccc4)c3=O)C2=O)c1C | 43.3 kMESF (inactive)
COc1ccc(/C=C2/C(=O)ON=C2c2ccccc2)cc1OC | 27.1 kMESF (inactive)
CC(C)C[C@]1(c2ccccc2)ON(c2ccccc2C(F)(F)F)C1=O | 34.6 kMESF (inactive)
Cc1ccc(/C=N/Nc2ncc(Cl)cc2Cl)s1 | 35.6 kMESF (inactive)
COc1ccc(N2CCN(C(=O)c3ccccc3)CC2)c([N+](=O)[O-])c1 | 40.6 kMESF (inactive)
O=C(COc1ccccc1)NNC(=S)NC(=O)c1ccc(Cl)cc1Cl | 29.9 kMESF (inactive)
O=C(Nc1ccc(O)cc1)C1CCCN1S(=O)(=O)c1ccc(F)cc1 (stereo not drawn) | 42.4 kMESF (inactive)
C=CCn1c(C)c(/C=C/c2cc[n+](C)cc2)c2ccccc21 | 42.5 kMESF (inactive)
CC(OC(=O)c1ccco1)C(=O)Nc1nc(-c2ccccc2)cs1 (stereo not drawn) | 40.9 kMESF (inactive)
CCOC(=O)CSC1=NC(=O)/C(=C/c2ccc(OC)cc2)S1 | 43.4 kMESF (inactive)
O=C(/C=C/c1cccc(Cl)c1)c1nc2ccccc2[nH]1 | 29.7 kMESF (inactive)
O=C(O)c1ccn2c(C(=O)c3ccccc3)c(-c3ccccc3)cc2c1 | 37.7 kMESF (inactive)
